Consider 29 compounds from ChEMBL document CHEMBL4483862, “Open-source discovery of chemical leads for next-generation chemoprotective antimalarials” (2018).

This assay relates to Plasmodium berghei. The assay can be described thus: Luciferase/luciferin-expressing antifolate-resistant parasites were used to infect a culture of HepG2 cells that were pre-incubated with compounds. Infected hepatocytes emit light due to the luciferase reaction. Assay results are presented as the percent inhibition of light emission compared to control. […]. The note with it: sporozoite; for IC90: read-out: LUCIFERASE INFECTION ASSAY - IC90. The format is functional.

Molecules are shown by their SMILES.

The term IC50 denotes the concentration needed to halve the response being measured. Broadly, the IC90 is the concentration at which the effect reaches the 90% level. Turning to `COc1cc(/C=C(/C(=O)c2cccs2)c2nc3ccccc3[nH]2)cc(OC)c1O`, the IC90 is greater than 10 µM. The IC50 (HEPG2TOX_HILL_SLOPE 9.16, HEPG2TOX_R_SQUARED 0.911, PBLUC_HILL_SLOPE 3.79, PBLUC_R_SQUARED 0.1, read-out: LUCIFERASE INFECTION ASSAY - IC50) is 7.39 µM.

As for `N#Cc1c(N)nc(Sc2ccc(Cl)cc2)c(C#N)c1-c1ccccc1Cl`, the IC90 was greater than 8.31 µM. For the same compound, for the setting “HEPG2TOX_HILL_SLOPE 9.05, HEPG2TOX_R_SQUARED 0.0303, PBLUC_HILL_SLOPE 3.41, PBLUC_R_SQUARED 0.0674, read-out: LUCIFERASE INFECTION ASSAY - IC50”, the IC50 came out at 7.69 µM.

Turning to `CCOC(=O)c1sc(S(C)(=O)=O)c2c1CC(C)(C)CC2=O`, the IC90 was greater than 9.99 µM. The IC50 (HEPG2TOX_HILL_SLOPE 8.99, HEPG2TOX_R_SQUARED 0.709, PBLUC_HILL_SLOPE 5.08, PBLUC_R_SQUARED 0.0136, read-out: LUCIFERASE INFECTION ASSAY - IC50) was greater than 9.99 µM.

Turning to `CN(C)CCNc1cc(-c2cccs2)nc2ccccc12`, the IC90 amounted to 4.22 µM. Besides, the IC50 (HEPG2TOX_HILL_SLOPE 9.05, HEPG2TOX_R_SQUARED 0.795, PBLUC_HILL_SLOPE 12.9, PBLUC_R_SQUARED 0.598, read-out: LUCIFERASE INFECTION ASSAY - IC50) is 3.56 µM.

Turning to `CCNC(=O)COc1ccc(/C=C/C(=O)c2ccc(N3CCCCC3)cc2)cc1OC`, the IC90 was greater than 10 µM. In addition, the IC50 (HEPG2TOX_HILL_SLOPE 9.05, HEPG2TOX_R_SQUARED 0.908, PBLUC_HILL_SLOPE 2.57, PBLUC_R_SQUARED 0.344, read-out: LUCIFERASE INFECTION ASSAY - IC50) worked out at 5.12 µM.

`CN1C/C(=C/c2csnn2)C(=O)/C(=C/c2csnn2)C1`: the IC90 came out at 4.3 µM. For the same compound, the IC50 (HEPG2TOX_HILL_SLOPE 8.98, HEPG2TOX_R_SQUARED 0.932, PBLUC_HILL_SLOPE 14.4, PBLUC_R_SQUARED 0.582, read-out: LUCIFERASE INFECTION ASSAY - IC50) was 3.69 µM.

As to `CCc1ccc(NC(=O)Cc2nc(-c3ccc4c(c3)CCCN4S(C)(=O)=O)cs2)cc1`, the IC90 was greater than 10 µM. The IC50 (HEPG2TOX_HILL_SLOPE 9.08, HEPG2TOX_R_SQUARED 0.0527, PBLUC_HILL_SLOPE 1.74, PBLUC_R_SQUARED 0.25, read-out: LUCIFERASE INFECTION ASSAY - IC50) came out at 5.76 µM.

For `CCc1ccc(OCC(O)Cn2c(=O)c3ccccc3n3nc(C)cc23)cc1` (stereo not drawn), the IC90 was found to be 9.43 µM. Also, the IC50 (HEPG2TOX_HILL_SLOPE 9.12, HEPG2TOX_R_SQUARED 0.677, PBLUC_HILL_SLOPE 3.87, PBLUC_R_SQUARED 0.197, read-out: LUCIFERASE INFECTION ASSAY - IC50) came to 5.34 µM.

Regarding `O=C(/C=C/c1ccncc1)Nc1ccc(Oc2ccccc2)cc1`, the IC90 is 6.66 µM. Besides, under “HEPG2TOX_HILL_SLOPE 9.03, HEPG2TOX_R_SQUARED 0.239, PBLUC_HILL_SLOPE 3.67, PBLUC_R_SQUARED 0.501, read-out: LUCIFERASE INFECTION ASSAY - IC50”, the IC50 was found to be 3.66 µM.

Take `COc1ccc(-c2cnn3c(N)c(-c4cccc(Cl)c4)cnc23)cc1OC`: the IC90 is greater than 8.67 µM. Also, the IC50 (HEPG2TOX_HILL_SLOPE 8.92, HEPG2TOX_R_SQUARED 0.943, PBLUC_HILL_SLOPE 1.73, PBLUC_R_SQUARED 0.738, read-out: LUCIFERASE INFECTION ASSAY - IC50) was 2.75 µM.

Take `CN(C)c1ccc(C(=O)N2CCc3nc(NCc4cccc(Oc5ccccc5)c4)ncc3C2)cc1`: the IC90 is greater than 6.88 µM. The IC50 (HEPG2TOX_HILL_SLOPE 9.14, HEPG2TOX_R_SQUARED 0.261, read-out: LUCIFERASE INFECTION ASSAY - IC50) was greater than 6.88 µM.

Consider `CC(=O)NC(C)CCc1ccc(C(=O)Cn2ncc(Cl)c(Cl)c2=O)cc1` (stereo not drawn), for which the IC90 was determined as 9.36 µM. Besides, the IC50 (HEPG2TOX_HILL_SLOPE 9.09, HEPG2TOX_R_SQUARED 0.148, PBLUC_HILL_SLOPE 4.21, PBLUC_R_SQUARED 0.695, read-out: LUCIFERASE INFECTION ASSAY - IC50) came out at 5.55 µM.

In the case of `FC(F)(F)c1cnc(N/N=C/c2cccs2)c(Cl)c1`, the IC90 is 10.6 µM. In addition, under “HEPG2TOX_HILL_SLOPE 9.1, HEPG2TOX_R_SQUARED 0.955, PBLUC_HILL_SLOPE 28.7, PBLUC_R_SQUARED 0.321, read-out: LUCIFERASE INFECTION ASSAY - IC50”, the IC50 amounted to 9.82 µM.

With `Cc1nc(Sc2nnnn2-c2ccccc2)c2c3c(sc2n1)CCC3`, the IC90 was greater than 10 µM. Further, the IC50 (HEPG2TOX_HILL_SLOPE 9.14, HEPG2TOX_R_SQUARED 0.239, read-out: LUCIFERASE INFECTION ASSAY - IC50) was greater than 10 µM.

`CC1(C(=O)N2CCN(c3ccc(C(F)(F)F)cn3)CC2)Cc2ccccc2C(=O)O1` (stereo not drawn): the IC90 is greater than 10 µM. For the same compound, the IC50 (HEPG2TOX_HILL_SLOPE 9.02, HEPG2TOX_R_SQUARED 0.896, PBLUC_HILL_SLOPE 11.4, 1.60, PBLUC_R_SQUARED 0.0115, 0.213, read-out: LUCIFERASE INFECTION ASSAY - IC50) worked out at 7.88 µM.

Turning to `Nc1ncnc(Sc2nnnn2-c2ccccc2)c1[N+](=O)[O-]`, the IC90 was greater than 10 µM. The IC50 (HEPG2TOX_HILL_SLOPE 9.17, HEPG2TOX_R_SQUARED 0.951, read-out: LUCIFERASE INFECTION ASSAY - IC50) was greater than 10 µM.

Turning to `CC(C)(C)NC(=S)N/N=C/c1cc([N+](=O)[O-])ccc1O`, the IC90 worked out at 11.1 µM. In addition, the IC50 (HEPG2TOX_HILL_SLOPE 9.08, HEPG2TOX_R_SQUARED 0.437, PBLUC_HILL_SLOPE 15.5, PBLUC_R_SQUARED 0.332, read-out: LUCIFERASE INFECTION ASSAY - IC50) is 9.61 µM.

`CCc1cc[n+](CC(=O)Nc2cc3oc4ccccc4c3cc2OC)cc1`: the IC90 is 9.36 µM. The IC50 (HEPG2TOX_HILL_SLOPE 8.94, HEPG2TOX_R_SQUARED 0.562, PBLUC_HILL_SLOPE 18.1, PBLUC_R_SQUARED 0.422, read-out: LUCIFERASE INFECTION ASSAY - IC50) is 8.29 µM.

For the compound `COc1ccc(Nc2nccc3[nH]c(-c4ccsc4)cc23)cc1OC`, the IC90 worked out at 7.38 µM. Under “HEPG2TOX_HILL_SLOPE 8.96, HEPG2TOX_R_SQUARED 0.789, PBLUC_HILL_SLOPE 2.87, PBLUC_R_SQUARED 0.796, read-out: LUCIFERASE INFECTION ASSAY - IC50”, the IC50 was found to be 3.43 µM.

Turning to `c1ccc2c(-n3ccnc3)nc(-c3ccsc3)nc2c1`, the IC90 was determined as 7.73 µM. The IC50 (HEPG2TOX_HILL_SLOPE 9, HEPG2TOX_R_SQUARED 0.711, PBLUC_HILL_SLOPE 3.68, 14.1, PBLUC_R_SQUARED 0.615, 0.129, read-out: LUCIFERASE INFECTION ASSAY - IC50) was 4.26 µM.

Regarding `CCOC(=O)c1cc(C#N)c(Sc2nnc(SCC3CC3)s2)nc1C(F)(F)F`, the IC90 is greater than 7.39 µM. Moreover, where the note is “HEPG2TOX_HILL_SLOPE 8.92, HEPG2TOX_R_SQUARED 0.488, read-out: LUCIFERASE INFECTION ASSAY - IC50”, the IC50 was greater than 7.39 µM.

With `COc1ccc(CN2C(=O)N(C)C3(CCN(Cc4ccc(N5CCCC5)cc4)CC3)C2=O)cc1`, the IC90 was greater than 7.13 µM. Besides, the IC50 (HEPG2TOX_HILL_SLOPE 9.02, HEPG2TOX_R_SQUARED 0.802, PBLUC_HILL_SLOPE 4.22, PBLUC_R_SQUARED 0.106, read-out: LUCIFERASE INFECTION ASSAY - IC50) stood at 5.16 µM.

For `O=C(CSc1ncnc2sc(-c3ccccc3)cc12)NCc1ccc(F)cc1`, the IC90 was greater than 10 µM. Further, under “HEPG2TOX_HILL_SLOPE 9.03, HEPG2TOX_R_SQUARED 0.325, PBLUC_HILL_SLOPE 19.9, PBLUC_R_SQUARED 0.0271, read-out: LUCIFERASE INFECTION ASSAY - IC50”, the IC50 is 9.7 µM.

`CCCOc1ccc(S(=O)(=O)NC2CCCCC2)c2ccccc12`: the IC90 worked out at 8.57 µM. Moreover, for the setting “HEPG2TOX_HILL_SLOPE 9.17, HEPG2TOX_R_SQUARED 0.712, PBLUC_HILL_SLOPE 2.91, PBLUC_R_SQUARED 0.385, read-out: LUCIFERASE INFECTION ASSAY - IC50”, the IC50 came out at 4.03 µM.

Consider `O=C(CCN1CCN(c2ccc([N+](=O)[O-])cc2)CC1)N1CCN(c2ccccn2)CC1`, for which the IC90 is 4.57 µM. Moreover, the IC50 (HEPG2TOX_HILL_SLOPE 9.17, HEPG2TOX_R_SQUARED 0.128, PBLUC_HILL_SLOPE 14.9, PBLUC_R_SQUARED 0.446, read-out: LUCIFERASE INFECTION ASSAY - IC50) was 3.94 µM.

Regarding `CC(C)(C)c1nc2ccc(NC(=O)c3ccc(Cl)c(S(=O)(=O)NC4CC4)c3)cc2[nH]1`, the IC90 is greater than 10 µM. Where the note is “HEPG2TOX_HILL_SLOPE 8.98, HEPG2TOX_R_SQUARED 0.824, PBLUC_HILL_SLOPE 3.11, PBLUC_R_SQUARED 0.121, read-out: LUCIFERASE INFECTION ASSAY - IC50”, the IC50 was 7.36 µM.

As for `COCCNc1ccc([N+](=O)[O-])cc1C(=O)Nc1nc2c(C)cccc2s1`, the IC90 is greater than 10 µM. The IC50 (HEPG2TOX_HILL_SLOPE 9.09, HEPG2TOX_R_SQUARED 0.757, PBLUC_HILL_SLOPE 15.6, PBLUC_R_SQUARED 0.06, read-out: LUCIFERASE INFECTION ASSAY - IC50) worked out at 9.61 µM.

As for `CCC(C)(C)c1ccc(Oc2ccc(NC(=O)CSc3nnc(-c4ccccc4)[nH]3)cc2)cc1`, the IC90 stood at 7.78 µM. Also, the concentration for half-maximal inhibition (IC50) (HEPG2TOX_HILL_SLOPE 9.08, HEPG2TOX_R_SQUARED 0.57, PBLUC_HILL_SLOPE 3.67, PBLUC_R_SQUARED 0.581, read-out: LUCIFERASE INFECTION ASSAY - IC50) was determined as 4.28 µM.

Consider `Clc1ccc(CN2CCN(c3ncnc4sccc34)CC2)s1`, for which the IC90 is greater than 10 µM. For the same compound, the IC50 (HEPG2TOX_HILL_SLOPE 8.99, HEPG2TOX_R_SQUARED 0.725, PBLUC_HILL_SLOPE 4.78, PBLUC_R_SQUARED 0.254, read-out: LUCIFERASE INFECTION ASSAY - IC50) turned out to be 8.3 µM.
